US5385909A, “Heterocyclic esters of rapamycin” (American Home Products Corporation, priority 1993, dated 1995)
Where two headings read alike, the source gives them in different places.

Experiments:
[1] = tested on: adjuvant arthritis, uninjected (left) hind paw inflammation; test: Adjuvant arthritis standard pharmacological test procedure; format: in vivo, male Wistar Lewis rats; details: 2 mg/kg, oral, uninjected paw at day 16; for Percent change in adjuvant arthritis versus control: 7 doses day 0-14, more negative = more potent
Procedure: (§1) Immunosuppressive activity for representative compounds of this invention was evaluated in an in vitro standard pharmacological test procedure to measure lymphocyte proliferation (LAF) and in three in vivo standard pharmacological test procedures. The pinch skin graft test procedure measures the immunosuppressive activity of the compound tested as well as the ability of the compound tested to inhibit or treat transplant rejection. The adjuvant arthritis standard pharmacological test procedure, which measures the ability of the compound tested to inhibit immune mediated inflammation. The adjuvant arthritis test procedure is a standard pharmacological test procedure for rheumatoid arthritis. Representative compounds of this invention were also evaluated in a heart allograft standard pharmacological test procedure which measures immunosuppressive activity of the compound tested as well as the ability of the compound tested to inhibit or treat transplant rejection. The procedures for these standard pharmacological test procedures are provided below.
The adjuvant arthritis standard pharmacological test procedure measures the ability of test compounds to prevent immune mediated inflammation and inhibit or treat rheumatoid arthritis. The following briefly describes the test procedure used. A group of rats (male inbread Wistar Lewis rats) are pre-treated with the compound to be tested (1 h prior to antigen) and then injected with Freud's Complete Adjuvant (FCA) in the right hind paw to induce arthritis. The rats are then orally dosed on a Monday, Wednesday, Friday schedule from day 0-14 for a total of 7 doses. Both hind paws are measured on days 16, 23, and 30. The difference in paw volume (mL) from day 16 to day 0 is determined and a percent change from control is obtained. […] The right hind paw inflammation, on the other hand, is caused by nonspecific inflammation. Compounds were tested at a dose of 2 mg/kg.

heart allograft = test: Heterotropic heart allograft standard pharmacological test procedure; format: in vivo, BN rat neonate donors, male Lewis rat recipients; details: 300 μg/day, i.p.; untreated rejected in about 9-10 days
Procedure: as §1
The ability of the compounds of this invention to induce immunosuppression and inhibit or treat transplantation rejection was evaluated in a heterotropic heart allograft standard pharmacological test procedure that emulates transplantation rejection that occurs in humans. The following briefly describes the procedure that was used. […]

pinch skin graft = test: Pinch skin graft survival test procedure; format: in vivo, male BALB/c donors, male C3 H(H-2K) recipients (mice); details: 4 mg/kg; intraperitoneally or orally; untreated grafts usually rejected within 6-7 days
Procedure: as §1
Representative compounds of this invention were also evaluated in an in vivo test procedure designed to determine the survival time of pinch skin graft from male BALB/c donors transplanted to male C3 H(H-2K) recipients. The method is adapted from Billingham R. E. and Medawar P. B., J. Exp. Biol. 28:385-402, (1951). Briefly, a pinch skin graft from the donor was grafted on the dorsum of the recipient as a allograft, and an isograft was used as control in the same region. The recipients were treated with either varying concentrations of test compounds intraperitoneally or orally. Rapamycin was used as a test control. Untreated recipients serve as rejection control. The graft was monitored daily and observations were recorded until the graft became dry and formed a blackened scab. This was considered as the rejection day. The mean graft survival time (number of days±S.D.) of the drug treatment group was compared with the control group. […] Results are expressed as the mean survival time in days. Untreated (control) pinch skin grafts are usually rejected within 6-7 days. Compounds were tested using a dose of 4 mg/kg.

[2] = tested on: lymphocyte proliferation (thymus cells of normal BALB/c mice); test: Comitogen-induced thymocyte proliferation procedure (LAF); format: cell-based; details: Mus musculus, read-out: LAF IC50
Procedure: as §1
The comitogen-induced thymocyte proliferation procedure (LAF) was used as an in vitro measure of the immunosuppressive effects of representative compounds. Briefly, cells from the thymus of normal BALB/c mice are cultured for 72 hours with PHA and IL-1 and pulsed with tritiated thymidine during the last six hours. Cells are cultured with and without various concentrations of rapamycin, cyclosporin A, or test compound. Cells are harvested and incorporated radioactivity is determined. Inhibition of lymphoproliferation is assessed as percent change in counts per minute from non-drug treated controls. For each compound evaluated, rapamycin was also evaluated for the purpose of comparison. An IC50 was obtained for each test compound as well as for rapamycin. […] The results obtained are provided as an IC50.

immunosuppression = details: cited from earlier work
[3] = tested on: adjuvant arthritis, a model for rheumatoid arthritis; details: in vivo; cited from earlier work
tumor = details: alone or in combination with picibanil; cited from earlier work
[4] = tested on: formation of IgE-like antibodies; details: in vivo; cited from earlier work
Candida albicans = details: in vitro and in vivo; cited from earlier work
[5] = tested on: experimental allergic encephalomyelitis, a model for multiple sclerosis; details: in vivo; cited from earlier work
[6] = 72 h culture with PHA and IL-1, tritiated thymidine incorporation

| Structure (SMILES) | Percent change in adjuvant arthritis versus control [1] [%] | Skin graft survival (mean survival time ± S.D.) (pinch skin graft) [days] | IC50 [2, 6] [nM] | other results |
| --- | --- | --- | --- | --- |
| CO[C@H]1C[C@@H]2CC[C@@H](C)[C@@](O)(O2)C(=O)C(=O)N2CCCC[C@H]2C(=O)O[C@H]([C@H](C)C[C@@H]2CC[C@@H](OC(=O)c3cccnc3C)[C@H](OC)C2)CC(=O)[C@H](C)/C=C(\C)[C@@H](O)[C@@H](OC)C(=O)[C@H](C)C[C@H](C)/C=C/C=C/C=C/1C [Example 1, Rapamycin 42-ester with 2-methylnicotinic acid] | -88 | 11.2 ± 0.8 | 1 | Heart allograft survival (mean survival time) (heart allograft): 29.9 days |
| CO[C@H]1C[C@@H]2CC[C@@H](C)[C@@](O)(O2)C(=O)C(=O)N2CCCC[C@H]2C(=O)O[C@H]([C@H](C)C[C@@H]2CC[C@@H](OC(=O)c3cccnc3)[C@H](OC)C2)CC(=O)[C@H](C)/C=C(\C)[C@@H](O)[C@@H](OC)C(=O)[C@H](C)C[C@H](C)/C=C/C=C/C=C/1C [Example 2, Rapamycin 42-ester with nicotinic acid] | – | 9.60 ± 0.89 | 0.17 | – |
| CO[C@H]1C[C@@H]2CC[C@@H](C)[C@@](O)(O2)C(=O)C(=O)N2CCCC[C@H]2C(=O)O[C@H]([C@H](C)C[C@@H]2CC[C@@H](OC(=O)c3ccc(C)nc3)[C@H](OC)C2)CC(=O)[C@H](C)/C=C(\C)[C@@H](O)[C@@H](OC)C(=O)[C@H](C)C[C@H](C)/C=C/C=C/C=C/1C [Example 3, Rapamycin 42-ester with 6-methylpyridine-3-carboxylic acid] | -87 | 12.5 ± 0.58 | 0.6 | – |
| CO[C@H]1C[C@@H]2CC[C@@H](C)[C@@](O)(O2)C(=O)C(=O)N2CCCC[C@H]2C(=O)O[C@H]([C@H](C)C[C@@H]2CC[C@@H](OC(=O)c3cnc(C)cn3)[C@H](OC)C2)CC(=O)[C@H](C)/C=C(\C)[C@@H](O)[C@@H](OC)C(=O)[C@H](C)C[C@H](C)/C=C/C=C/C=C/1C [Example 4, Rapamycin 42-ester with 5-methylpyrazine-2-carboxylic acid] | -90 | 11.33 ± 0.82 | 0.28 | – |
| C=CC[C@@H]1/C=C(\C)C[C@H](C)C[C@H](OC)[C@H]2O[C@@](O)(C(=O)C(=O)N3CCCC[C@H]3C(=O)O[C@H](/C(C)=C/[C@@H]3CC[C@@H](O)[C@H](OC)C3)[C@H](C)[C@@H](O)CC1=O)[C@H](C)C[C@@H]2OC [FK-506] | – | – | – | effective as immunosuppressive agents (immunosuppression): effective |
| CO[C@H]1C[C@@H]2CC[C@@H](C)[C@@](O)(O2)C(=O)C(=O)N2CCCC[C@H]2C(=O)O[C@H]([C@H](C)C[C@@H]2CC[C@@H](O)[C@H](OC)C2)CC(=O)[C@H](C)/C=C(\C)[C@@H](O)[C@@H](OC)C(=O)[C@H](C)C[C@H](C)/C=C/C=C/C=C/1C [rapamycin] | – | – | – | effectiveness in adjuvant arthritis model [3]: effective; antitumor activity (tumor): antitumor activity; less immune induced inflammation than control rats [1]: 70-90%; inhibition of formation of IgE-like antibodies [4]: effectively inhibited; antifungal activity (Candida albicans): antifungal activity, particularly against Candida albicans, both in vitro and in vivo; effectiveness in experimental allergic encephalomyelitis model [5]: effective; IC50 ([2]; 72 h): 0.5 to 1.9 nM |
